In patent US5409953A, “Isolation, structural elucidation and synthesis of novel antineoplastic substances denominated "combretastatins"” (Arizona Board of Regents acting on behalf of Arizona State …, priority 1992, dated 1995):
In brackets after ≈: the same amount, converted by molar mass. Entries after “also recorded” stand apart in the source; their conditions may differ. Like-named read-outs stand apart in the source and are kept apart here.

Tests used:
[1] = tested on: murine P388 lymphocytic leukemia (PS system); assay: inhibition of PS cell line growth (Ed50); type: cell-based; settings: for IC50: Mus musculus
tubulin [2] = assay: microtubule assembly (turbidimetric); type: biochemical; settings: for IC50: Experiment I; for inhibition of microtubule assembly / tubulin polymerization in words: comparison with reference agents
Protocol: (§1) The assembly reaction at 37° C. was followed turbidimetrically as described by Hamel et al, Biochem. Pharmacal., 32, p.

tubulin [3] = assay: binding of [3H]colchicine to tubulin; settings: Experiment II; for colchicine binding, % of control: 5 μM [3H]colchicine, competing drug at 5 μM, 10 minutes at 37° C.
Protocol: (§2) Incubation was for 10 minutes at 37° C.

tubulin [4] = settings: cited from earlier work
tubulin [5] = assay: in vitro interactions with tubulin (overall comparison); type: biochemical
Protocol: as §1, §2

NCI astrocytoma = NCI astrocytoma bioassay; type: cell-based
[6] = tested on: murine P388 lymphocytic leukemia (PS system); assay: PS in vivo life extension; settings: 2.75-11 mg/kg dose levels
[7] = read-out: ID50, drug concentration inhibiting the extent of microtubule assembly by 50%, 37° C., 1.5 mg/ml tubulin, 0.5 mg/ml microtubule-associated proteins
[8] = read-out: concentration giving equivalent inhibition of microtubule assembly

SMILES: COc1cc(CCc2ccc(O)c(O)c2)cc(OC)c1OC [Combretastatin B-3]
- IC50 ([1]; P388 (PS) cell line): 0.4 µg/mL (≈ 1.31 µM)

SMILES: COc1ccc(CCc2cc(O)c(OC)c(OC)c2)cc1O [Combretastatin B-2]
- IC50 ([1]; P388 (PS) cell line): 0.32 µg/mL (≈ 1.05 µM)

SMILES: COc1ccc(/C=C\c2cc(O)c(OC)c(OC)c2)cc1O [Combretastatin A-3]
- IC50 ([1]; P388 (PS) cell line): 0.026 µg/mL (≈ 0.086 µM)

SMILES: COc1cc([C@@H]2c3cc4c(cc3[C@H](O)[C@H]3COC(=O)[C@H]23)OCO4)cc(OC)c1OC [Podophyllotoxin, reference compound]
- colchicine binding, % of control (tubulin [3]): 13 % of control
- mode of inhibition of binding of radiolabeled colchicine (tubulin [4]): competitive inhibitors

SMILES: COc1ccc(CCc2cc(OC)c(OC)c(OC)c2)c(O)c1O [Combretastatin B-1]
- IC50 (tubulin [2]; [8]): 3 µM
- inhibition of microtubule assembly / tubulin polymerization in words (tubulin [2]): comparable to that observed with podophyllotoxin and greater than that observed with colchicine and steganacin
- inhibition of binding of (3H)colchicine to tubulin in words (tubulin [3]): particularly potent
- colchicine binding, % of control (tubulin [3]): 13 % of control
- interactions with tubulin in words (tubulin [5]): significantly more potent than the previously described combretastatin
- IC50 ([1]; P388 (PS) cell line): 1.7 µg/mL (≈ 5.08 µM)

SMILES: COc1ccc(/C=C\c2cc(OC)c3c(c2)OCO3)cc1O [Combretastatin A-2]
- IC50 ([1]; P388 (PS) cell line): 0.027 µg/mL (≈ 0.0899 µM)

SMILES: COc1cc(CCc2ccc(OC)c(O)c2)cc(OC)c1 [3'-hydroxy-3,4',5-trimethoxy bibenzyl]
- IC50 ([1]; P388 (PS) cell line): 1.7 µg/mL (≈ 5.9 µM)

SMILES: COc1cc(CCc2ccc(O)c(O)c2)cc(OC)c1 [Combretastatin B-4]
- IC50 ([1]; P388 (PS) cell line): 1.7 µg/mL (≈ 6.2 µM)

SMILES: COc1ccc(C[C@@H](O)c2cc(OC)c(OC)c(OC)c2)cc1O [Combretastatin, R(-)-1-(3,4,5-tri-methoxyphenyl)-2-(3'-hydroxy, 4'-methoxyphenyl)-ethanol]
- IC50 (tubulin [2]; [8]): 11 µM
- colchicine binding, % of control (tubulin [3]): 34 % of control
- astrocyte reversal (NCI astrocytoma): pronounced astrocyte reversal
- mode of inhibition of binding of radiolabeled colchicine (tubulin [4]): competitive inhibitors

SMILES: COc1cc2c(c(OC)c1OC)-c1cc3c(cc1C(OC(C)=O)[C@H]1COC(=O)[C@@H]1C2)OCO3 (stereo partly drawn) [Steganacin, reference compound]
- IC50 (tubulin [2]; [7]): 6 µM
- colchicine binding, % of control (tubulin [3]): 49 % of control
- mode of inhibition of binding of radiolabeled colchicine (tubulin [4]): competitive inhibitors

SMILES: COc1cc(/C=C/c2ccc(OC)c(OC(C)=O)c2OC(C)=O)cc(OC)c1OC [trans-isomer counter part, 2',3'-diacetoxy-4'-methoxy-E-combretastatin A-1]
- IC50 ([1]; P388 (PS) cell line): 12 µg/mL (≈ 28.8 µM)
- PS cell line activity in words ([1]; P388 (PS) cell line): essentially inactive

SMILES: COc1cc(/C=C\c2ccc(OC)c(OC(C)=O)c2OC(C)=O)cc(OC)c1OC [Combretastatin A-1 d lacerate, 2', 3'-diacetoxy-4'-methoxy-Z-combretastatin A-1]
- IC50 ([1]; P388 (PS) cell line): 2.7 µg/mL (≈ 6.48 µM)
- activity relative to parent natural product combretastatin A-1 ([1]; PS cell line): three-fold less active

SMILES: COc1ccc(/C=C\c2cc(OC)c(OC)c(OC)c2)c(O)c1O [Combretastatin A-1]
- IC50 (tubulin [2]; [8]): 2 µM
- inhibition of microtubule assembly / tubulin polymerization in words (tubulin [2]): more potent than combretastatin and the well known tubulin inhibitors colchicine and podophylotoxin
- inhibition of microtubule assembly / tubulin polymerization in words (tubulin [2]; listed as combretastatins A-1): comparable to that observed with podophyllotoxin and greater than that observed with colchicine and steganacin
- concentration completely inhibiting microtubulin assembly in vitro (tubulin [2]; complete inhibition): less than 1.5 μmolar
- inhibition of binding of (3H)colchicine to tubulin in words (tubulin [3]): particularly potent
- colchicine binding, % of control (tubulin [3]): 2.2 % of control
- interactions with tubulin in words (tubulin [5]): more active than combretastatin B-1; also recorded: significantly more potent than the previously described combretastatin
- IC50 ([1]; P388 (PS) cell line): 0.99 µg/mL (≈ 2.98 µM)
- increase in life extension [6]: 26-29%

SMILES: COc1cc(CCc2ccc(O)cc2)cc(OC)c1OC [4'-hydroxy-3,4,5-trimethoxy bibenzyl]
- IC50 ([1]; P388 (PS) cell line): 0.25 µg/mL (≈ 0.867 µM)
